Measurements as given in ChEMBL document CHEMBL3885861, “Open TG-GATES”.

Organism: Rattus norvegicus
Experiment: Open TG-GATES - Regimen: Single
Type: toxicity, organism-based, Sprague-Dawley
Design: regimen Single, gender Male, age 6 weeks
Conditions: in vivo, po, 0 mg/kg, route gavage, dose level Control; for APTT / Bas / Eos / Fbg / Hb / Ht / Lym / MCH / MCHC / MCV / Mono / Neu / PT / Plat / RBC / Ret / WBC: tissue Blood; for KIDNEY_L / KIDNEY_R / KIDNEY_TOTAL: tissue Kidney; for LIVER: tissue Liver; for A/G / ALP / ALT / AST / BUN / CRE / Ca / Cl / DBIL / GLC / IP / K / LDH / Na / PL / RALB / TBIL / TC / TG / TP / gamma-GTP: tissue Plasma

## CCOc1ccc(NC(=O)CC(C)O)cc1 (stereo unspecified) [BUCETIN]
9 h
  TERMINAL_BW: 208.6 g
  APTT: 17.3 s
  Bas: 0%
  Eos: 1%
  Fbg: 299.8 mg/dL
  Hb: 13 g/dL
  Ht: 39.1%
  Lym: 79.8%
  MCH: 21.3 pg
  MCHC: 33.2%
  MCV: 64.3 fL
  Mono: 2.6%
  Neu: 16.6%
  PT: 14.3 s
  Plat: 114.6 x10_4/uL
  RBC: 608.6 x10_4/ul
  Ret: 8.1%
  WBC: 87.3 x10_2/uL
  KIDNEY_L: 0.9 g
  KIDNEY_R: 0.9 g
  KIDNEY_TOTAL: 1.8 g
  LIVER: 8.3 g
  A/G: 0.9
  ALP: 1557.4 IU/L
  ALT: 32.8 IU/L
  AST: 68.6 IU/L
  BUN: 9.4 mg/dL
  CRE: 0.2 mg/dL
  Ca: 10.5 mg/dL
  Cl: 106 meq/L
  DBIL: 0.018 mg/dL
  GLC: 178.6 mg/dL
  IP: 9.8 mg/dL
  K: 4 meq/L
  LDH: 70.2 IU/L
  Na: 142.2 meq/L
  PL: 135 mg/dL
  RALB: 2.6 g/dL
  TBIL: 0.06 mg/dL
  TC: 73.8 mg/dL
  TG: 57.2 mg/dL
  TP: 5.4 g/dL
  gamma-GTP: 1.4 IU/L
24 h
  TERMINAL_BW: 224 g
  APTT: 18.6 s
  Bas: 0.2%
  Eos: 0.8%
  Fbg: 290.6 mg/dL
  Hb: 13.4 g/dL
  Ht: 40.5%
  Lym: 79%
  MCH: 21.3 pg
  MCHC: 33%
  MCV: 64.4 fL
  Mono: 2.6%
  Neu: 16.6%
  PT: 14.3 s
  Plat: 121.1 x10_4/uL
  RBC: 628.8 x10_4/ul
  Ret: 7.6%
  WBC: 102.9 x10_2/uL
  KIDNEY_L: 1 g
  KIDNEY_R: 1 g
  KIDNEY_TOTAL: 2 g
  LIVER: 10.4 g
  A/G: 0.9
  ALP: 1587.4 IU/L
  ALT: 40.4 IU/L
  AST: 72.2 IU/L
  BUN: 14.6 mg/dL
  CRE: 0.2 mg/dL
  Ca: 11.1 mg/dL
  Cl: 105.2 meq/L
  DBIL: 0.022 mg/dL
  GLC: 180.8 mg/dL
  IP: 7.9 mg/dL
  K: 4.1 meq/L
  LDH: 74.6 IU/L
  Na: 143.6 meq/L
  PL: 148.2 mg/dL
  RALB: 2.6 g/dL
  TBIL: 0.05 mg/dL
  TC: 76.2 mg/dL
  TG: 104.2 mg/dL
  TP: 5.6 g/dL
  gamma-GTP: 1.2 IU/L
